{"source": "patent US20150374672A1", "about": "“PRE-SELECTION OF SUBJECTS FOR THERAPEUTIC TREATMENT WITH AN HSP90 INHIBITORY COMPOUND BASED ON CHEMOSENSITIVE STATUS” (Synta Pharmaceuticals Corp., priority 2014, published 2015)", "key": {"[1]": {"assay": "Safety of ganetespib across clinical trials (over 1,000 patients)", "assay_type": "in vivo, human", "from_the_text": "Ganetespib has been evaluated in a broad range of cancer clinical trials including the GALAXY NSCLC program (GALAXY-1 and GALAXY-2) in combination with docetaxel chemotherapy, and as monotherapy in certain genetically-defined targeted patient populations. A favorable safety profile has been consistently observed across clinical trials, involving over 1,000 patients treated with ganetespib to date. […] In the clinical trials conducted to date, ganetespib has shown promising activity both in combination with chemotherapy and as a monotherapy."}, "[2]": {"tested_on": "solid and hematologic cancers", "assay": "Preclinical studies of anti-cancer activity", "conditions": "monotherapy and in combination with widely used anti-cancer agents"}, "[3]": {"tested_on": "advanced solid tumor malignancies", "assay": "Phase 1 dose-escalation, pharmacokinetic study of ganetespib in combination with docetaxel", "assay_type": "in vivo, human", "conditions": "ganetespib schedule Days 1 and 15 of each cycle, preliminary data", "procedure": "Patients were dosed once-weekly. Dosing was with 150 mg/m^2 ganetespib (days 1 and 15)+60 mg/m^2 docetaxel (Day 1). Initial ganetespib dosing regimen was Days 1 and 8; however, Day 8 was later changed to Day 15. Day 4 dosing with single agent ganetespib was added. The dose cycle was 2 weeks+1 week rest. The primary objective of this study was to determine the recommended doses for the combination of ganetespib and docetaxel in patients with advanced solid tumor malignancies. Secondary objectives were to define the DLTs associated with ganetespib in combination with docetaxel dosing, assess possible PK effects, and evaluate the safety, tolerability, and preliminary evidence of anti-tumor activity of the combination. A total of 27 patients were enrolled."}, "[4]": {"tested_on": "advanced NSCLC", "assay": "GALAXY-1 Phase 2b trial, ganetespib plus docetaxel vs. docetaxel alone: OS and PFS", "assay_type": "in vivo, human", "from_the_text": "The GALAXY-1 trial was initiated in patients with advanced NSCLC who received one prior treatment for advanced disease, i.e., a second-line treatment setting. GALAXY-1 compared treatment with docetaxel (D) alone, which is approved for second-line treatment, vs. treatment with ganetespib (G) plus docetaxel (D). The aims of the study were to:\nThe key GALAXY-1 patient populations comprised populations with (1) elevated LDH (eLDH), (2) KRAS mutations (mKRAS) and/or (3) time since diagnosis of cancer of 6 months or greater (chemosensitive). A rationale for selecting a population with elevated LDH is that LDH-A is a marker of HIF-1α activity, and HIF-1α is a Hsp90 client, and drives invasiveness and metastasis. A rationale for selecting a population with KRAS mutation is that RAS signaling kinases are Hsp90 clients, and there is a medical need. A rationale for selecting a population in which the time since diagnosis of cancer is 6 months or greater (chemosensitive population) is that key cell cycle checkpoint/DNA repair kinases are Hsp90 clients. Additionally, key mitochondrial apoptosis pathway proteins are Hsp90 clients.\n(§1) Patients in both arms of GALAXY-1 received a standard regimen of docetaxel 75 mg/m^2 on day 1 of a 21-day treatment cycle. Patients in the combination arm also received ganetespib 150 mg/m^2 on days 1 and 15. Treatment continued until disease progression or until treatment intolerance. To ensure balance of prognostic factors between the two arms, patients were stratified by ECOG performance status (these scales and criteria are used by doctors and researchers to assess how a patient's disease is progressing, assess how the disease affects the daily living abilities of the patient, and determine appropriate treatment and prognosis), baseline lactate dehydrogenase (LDH) level, smoking status, and time since diagnosis of advanced disease.\nTo ensure the specified number of eLDH and mKRAS patients were included, a total of 385 patients were enrolled in GALAXY-1.\nHazard ratios were calculated with Cox proportional hazards model. • Unadjusted: univariate analysis • Adjusted: pre-specified analysis adjusting for multiple prognostic variables such as gender, smoking status, LDH, ECOG performance status, interval since diagnosis of advanced disease, age, total baseline target lesion size, and geographic region.\nThis was a randomized, multicenter, parallel group study. Patients in both arms were treated with docetaxel per standard practice until disease progression or intolerability. Patients on both arms were treated until intolerability or disease progression per RECIST.\nKey eligibility criteria were Stage IIIB/IV NSCLC; ECOG 0,1; one prior therapy in advanced setting; measurable disease by RECIST; documented disease progression; clinically stable CNS metastases; available tumor tissues; and adequate organ function.\nPatients were randomized in a 1:1 ratio to receive either ganetespib in combination with docetaxel or docetaxel alone.\nThe experimental arm was dosed with ganetespib in combination with docetaxel 75 mg/m^2. Ganetespib (150 mg/m^2) and docetaxel (75 mg/m^2) were administered on Day 1 of a 3-week cycle. Ganetespib (150 mg/m^2) was administered again on Day 15 of each 3-week cycle. Docetaxel 75 mg/m^2 was administered on Day 1 of a 3-week treatment cycle. 385 patients were enrolled. A total of 381 patients received at least one dose of study drug."}, "[5]": {"assay": "GALAXY-1 safety profile (adverse events) in adenocarcinoma patients", "procedure": "as §1"}, "[6]": {"conditions": "Adenocarcinoma population, N = 253"}, "[7]": {"conditions": "Chemosensitive population, N = 177"}}, "data": [{"smiles": "CC(C)c1cc(-c2nnc(O)n2-c2ccc3c(ccn3C)c2)c(O)cc1O", "note": "[Ganetespib]", "values": [{"measurement": "most common adverse event", "setting": "[1]; clinical trials", "result": "transient, mild or moderate diarrhea"}, {"measurement": "toxicities observed across clinical trials", "setting": "[1]; over 1,000 patients treated", "result": "not shown the serious liver or common ocular toxicities"}, {"measurement": "anti-cancer activity in preclinical studies", "setting": "[2]", "result": "potent anti-cancer activity"}, {"measurement": "recommended Phase 2 dose", "setting": "[3]", "result": 150, "unit": "mg/m^2"}]}, {"smiles": "CC(=O)O[C@@]12CO[C@@H]1C[C@H](O)[C@@]1(C)C(=O)[C@H](O)C3=C(C)[C@@H](OC(=O)[C@H](O)[C@@H](NC(=O)OC(C)(C)C)c4ccccc4)C[C@@](O)([C@@H](OC(=O)c4ccccc4)[C@H]21)C3(C)C", "note": "[D, docetaxel]", "values": [{"measurement": "Median OS", "setting": "[4]; [6]", "result": 8.4, "unit": "months"}, {"measurement": "Median PFS", "setting": "[4]; [6]", "result": 3.2, "unit": "months"}, {"measurement": "Median OS", "setting": "[4]; [7]", "result": 7.4, "unit": "months"}, {"measurement": "Median PFS", "setting": "[4]; [7]", "result": 3.4, "unit": "months"}, {"measurement": "Median OS", "setting": "[4]; eLDH population, N = 87", "result": 5.1, "unit": "months"}, {"measurement": "Median PFS", "setting": "[4]; eLDH population, N = 87", "result": 2.7, "unit": "months"}, {"measurement": "Median OS", "setting": "[4]; mKRAS population, N = 89", "result": 6.4, "unit": "months"}, {"measurement": "Median PFS", "setting": "[4]; mKRAS population, N = 89", "result": 3.0, "unit": "months"}, {"measurement": "recommended Phase 2 dose", "setting": "[3]", "result": 75, "unit": "mg/m^2"}, {"measurement": "proportion of patients with AEs leading to death", "setting": "[5]; adenocarcinoma patients", "result": 12, "unit": "%"}, {"measurement": "diarrhea, all grades", "setting": "[5]; human, in vivo", "result": 16, "unit": "%"}, {"measurement": "fatigue, all grades", "setting": "[5]; human, in vivo", "result": 24, "unit": "%"}, {"measurement": "grade 3 or 4 anemia", "setting": "[5]; human, in vivo", "result": 2, "unit": "%"}, {"measurement": "grade 3 or 4 fatigue", "setting": "[5]; human, in vivo", "result": 4, "unit": "%"}, {"measurement": "grade 3 or 4 febrile neutropenia", "setting": "[5]; human, in vivo", "result": 4, "unit": "%"}, {"measurement": "grade 3 or 4 neutropenia", "setting": "[5]; human, in vivo", "result": 42, "unit": "%"}, {"measurement": "incidence of grade 3 or 4 diarrhea", "setting": "[5]; human, in vivo", "result": 0, "unit": "%"}, {"measurement": "neutropenia, all grades", "setting": "[5]; human, in vivo", "result": 45, "unit": "%"}, {"measurement": "proportion of patients with AEs leading to treatment discontinuation", "setting": "[5]; human, in vivo", "result": 6, "unit": "%"}]}]}
